The results in this text go back to patent publication US9617212B2, “Isoindolin-1-ones as macrophage migration inhibitory factor (MIF) inhibitors” (Controlled Chemicals, Inc., priority 2013, dated 2017).

The target of the test is T1, Human MIF (MIF tautomerase) (Homo sapiens, UniProt P14174).
T1 construct: purchased ProSpec
T1 sequence (P14174 2-115 limits assumed): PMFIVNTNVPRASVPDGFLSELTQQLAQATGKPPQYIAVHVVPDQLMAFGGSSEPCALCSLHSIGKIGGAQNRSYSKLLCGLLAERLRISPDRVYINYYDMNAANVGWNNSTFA
Put plainly: MIF Tautomerase Inhibitory Assay with L-Dopachrome Methyl Ester. In kind it is biochemical. The settings on record: relative potency class, MIF tautomerase inhibition; L-dopachrome methyl ester substrate, pH 7.34, no pre-incubation; read-out: IC50. The protocol:
MIF Tautomerase Inhibitory Assay with L-Dopachrome Methyl Ester
Assay Method (pH 7.34, 0.017-0.033% DMSO, 0.034% EtOH): A fresh stock solution of L-dopachrome methyl ester in MeOH was prepared at 55-65 mM through oxidation of L-3,4-dihydroxyphenylalanine methyl ester hydrochloride with sodium periodate according to the procedure described in WO9729635A1. MeOH was removed from 0.5 mL of the L-dopachrome methyl ester/MeOH solution (55-65 mM) under a stream of argon and the residue taken up in appropriate amount of water to prepare a substrate solution (7-10 mM). Active Human MIF (from ProSpec) ([…]) was dissolved in 675 μL 0.1% bovine serum albumin (BSA) in water, and the resultant MIF solution (1 volume) mixed with 55 volumes of Na2HPO4 buffer (50 mM, pH 7.34) to form a 265 ng/mL MIF working solution. MIF working solution (280 μL) or a no-MIF working solution (prepared by mixing 0.1% BSA (1 volume) with the aforementioned Na2HPO4 buffer (55 volumes)) was transferred to wells in a column of 8 wells on a 96-well plate in a Plate Reader (SPECTRAmax Plus 384, Molecular Devices), and 5 μL of H2O/DMSO (99/1) containing no inhibitor or an inhibitor (whose concentration was verified by HPLC). Without pre-mixing or pre-incubation, 10 μL freshly prepared L-dopachrome methyl ester/H2O solution (7-10 mM) was added to each well with a multi-pipet. The assay samples were mixed immediately by sucking up and expelling the contents of the wells three times with a multi-pipet. The absorbance (A1) at 475 nm was then recorded for each sample every 2 s for 3 min. After 5-6 min, the samples were monitored again for 3 min with a reading every two seconds at 475 nm (A2). It can be shown that when [substrate]<<Km, plots of Ln(A1−A2) versus time are linear with slopes m (Eq 1). IC50 values were estimated from Eq 2-5, the inhibitor concentration [I] in the assay mixture and values of m in the presence (mi), absence (mo) of the inhibitor, the value of m observed for the non-MIF blank (mn), the MIF concentration (e), and the specificity constant for the MIF catalyzed reaction (kcat/Km). Ln(A1−A2)=−mt (Eq 1) F=(mi−mn)/(mo−mn) (Eq 2) Wherein mo−mn=ekcat/Km (Eq 3) and mi−mn=(ekcat/Km)[…] (Eq 4) IC50=[I]F/(1−F) (Eq 5)
The compounds listed in Table 1, provided herein, were prepared via procedures identical or similar to those described in the Examples 1-85. The listed compounds were >95% pure by HPLC. Each listed compound yielded a mass spectrum consistent with its structure. Concentrations of MIF tautomerase inhibitors used in the assay were verified by HPLC and the extinction coefficients of the inhibitors. The designated relative potency of MIF tautomerase inhibitors is based on the IC50 as determined by the method described in Biochemical Assay as follows: A, IC50<1 μM; B, 1 μM≦IC50<5 μM; C, 5 μM≦IC50<10 μM; D, 10 μM≦IC50<50 μM; E, 50 μM≦IC50<200 μM.

pIC50: −log10 of the molar value. Bounds are passed on as bounds.

One may read the pIC50 as the IC50 on a negative log10 scale, so that one unit is a factor of ten. For the compound `C[C@@H](OC(=O)CCC(=O)O)[C@H]1CC[C@H](CN2Cc3ccc(O)c(F)c3C2=O)CC1` (single isomer, unassigned), the pIC50 was above 6.00. To `CC(N[C@@H](C)C(=O)O)[C@H]1CC[C@H](CN2Cc3ccc(O)c(F)c3C2=O)CC1` (single isomer, unassigned) belongs above 6.00; to `CNC(=O)[C@H](Cc1ccccc1)NC(C)C1CCC(CN2Cc3ccc(O)c(F)c3C2=O)CC1` (stereo partly drawn) [drawing 99], above 6.00; to `CNC(=O)[C@H](Cc1ccccc1)NC(C)C1CCC(CN2Cc3ccc(O)c(F)c3C2=O)CC1` (stereo partly drawn) [drawing 100], above 6.00. `CC(C)C[C@@H](NC(C)C1CCC(CN2Cc3ccc(O)c(F)c3C2=O)CC1)C(=O)O` (stereo partly drawn) [drawing 104]: the negative logarithm of the IC50 (pIC50) was above 6.00. With `CC(C)C[C@@H](NC(C)C1CCC(CN2Cc3ccc(O)c(F)c3C2=O)CC1)C(=O)O` (stereo partly drawn) [drawing 107], the pIC50 is above 6.00.

As for `CC(C)[C@@H](CO)NC(C)[C@H]1CC[C@H](CN2Cc3ccc(O)cc3C2=O)CC1` (stereo partly drawn) [drawing 110], the pIC50 is above 6.00. The result for `COC(=O)[C@@H](C)NC(C)C1CCC(CN2Cc3ccc(O)c(F)c3C2=O)CC1` (stereo partly drawn) [drawing 112] reads above 6.00. The result for `COC(=O)[C@@H](C)NC(C)C1CCC(CN2Cc3ccc(O)c(F)c3C2=O)CC1` (stereo partly drawn) [drawing 113] reads above 6.00; that for `O=C(OC1CCCC1)C1CCC(CCN2Cc3ccc(O)cc3C2=O)CC1` (stereo not drawn) [drawing 138], 5.30 to 6.00.

For the compound `O=C(OC1CCCC1)C1CCC(CCN2Cc3ccc(O)cc3C2=O)CC1` (stereo not drawn) [drawing 139], the negative-log IC50 (pIC50) is 5.30 to 6.00. The result for `CC(C)[C@@H](CO)NC(C)[C@H]1CC[C@H](CN2Cc3ccc(O)cc3C2=O)CC1` (stereo partly drawn) [drawing 150] reads 5.30 to 6.00.
